Data taken from ChEMBL document CHEMBL5230104, “Systemic review on B-RafV600E mutation as potential therapeutic target for the treatment of cancer” (Eur J Med Chem, 2020).

Experiments:
[1] = Inhibition of full length GST tagged mouse B-Raf V600E mutant preincubated for 1 hr and measured after 25 mins in presence of ATP
[2] = Antiproliferative activity against human WM1361 cells measured after 48 hrs by MTT assay; assay type: functional, cell-based; conditions: WM1361, 48 h
[3] = system: A-375; experiment: Antiproliferative activity against human A-375 cells measured after 48 hrs by MTT assay; assay type: functional, cell-based; conditions: A-375, 48 h
[4] = system: WM 266-4; experiment: Antiproliferative activity against human WM266-4 cells measured after 48 hrs by MTT assay; assay type: functional, cell-based; conditions: WM 266-4, 48 h
[5] = molecular target: T1, Serine/threonine-protein kinase B-raf (Homo sapiens, UniProt P15056, V600E); experiment: Inhibition of B-Raf V600E mutant (unknown origin)
Target sequence in this assay (P15056 whole entry V600E): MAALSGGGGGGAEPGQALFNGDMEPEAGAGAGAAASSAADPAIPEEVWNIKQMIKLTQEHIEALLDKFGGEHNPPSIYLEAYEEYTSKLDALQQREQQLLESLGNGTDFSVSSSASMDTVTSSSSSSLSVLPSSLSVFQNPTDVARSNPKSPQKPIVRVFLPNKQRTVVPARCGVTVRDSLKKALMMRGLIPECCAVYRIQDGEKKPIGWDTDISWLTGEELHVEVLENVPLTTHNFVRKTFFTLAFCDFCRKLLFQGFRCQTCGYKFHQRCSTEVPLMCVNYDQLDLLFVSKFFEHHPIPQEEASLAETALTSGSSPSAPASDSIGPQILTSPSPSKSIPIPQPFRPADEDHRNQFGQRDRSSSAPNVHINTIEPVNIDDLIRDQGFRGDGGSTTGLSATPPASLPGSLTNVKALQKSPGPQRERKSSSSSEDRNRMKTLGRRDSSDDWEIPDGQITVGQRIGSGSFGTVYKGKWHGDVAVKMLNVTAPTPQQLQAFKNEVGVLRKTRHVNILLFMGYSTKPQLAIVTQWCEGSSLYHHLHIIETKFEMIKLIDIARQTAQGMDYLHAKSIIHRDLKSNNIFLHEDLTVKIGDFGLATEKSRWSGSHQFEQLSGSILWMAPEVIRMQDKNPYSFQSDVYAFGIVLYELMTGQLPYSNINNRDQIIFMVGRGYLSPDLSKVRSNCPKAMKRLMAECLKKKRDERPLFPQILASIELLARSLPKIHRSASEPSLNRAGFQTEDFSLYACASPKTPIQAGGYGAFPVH

[6] = system: HepG2; experiment: Antiproliferative activity against human HepG2 cells; assay type: functional, cell-based
[7] = system: MDA-MB-453; experiment: Antiproliferative activity against human MDA-MB-453 cells; assay type: functional, cell-based
[8] = system: SW480; experiment: Antiproliferative activity against human SW480 cells; assay type: functional, cell-based
[9] = molecular target: Serine/threonine-protein kinase B-raf (Mus musculus, UniProt P28028); experiment: Inhibition of full length GST tagged mouse wild type B-Raf preincubated for 1 hr and measured after 25 mins in presence of ATP
Sequence of Serine/threonine-protein kinase B-raf (Mus musculus, UniProt P28028) (P28028 whole entry): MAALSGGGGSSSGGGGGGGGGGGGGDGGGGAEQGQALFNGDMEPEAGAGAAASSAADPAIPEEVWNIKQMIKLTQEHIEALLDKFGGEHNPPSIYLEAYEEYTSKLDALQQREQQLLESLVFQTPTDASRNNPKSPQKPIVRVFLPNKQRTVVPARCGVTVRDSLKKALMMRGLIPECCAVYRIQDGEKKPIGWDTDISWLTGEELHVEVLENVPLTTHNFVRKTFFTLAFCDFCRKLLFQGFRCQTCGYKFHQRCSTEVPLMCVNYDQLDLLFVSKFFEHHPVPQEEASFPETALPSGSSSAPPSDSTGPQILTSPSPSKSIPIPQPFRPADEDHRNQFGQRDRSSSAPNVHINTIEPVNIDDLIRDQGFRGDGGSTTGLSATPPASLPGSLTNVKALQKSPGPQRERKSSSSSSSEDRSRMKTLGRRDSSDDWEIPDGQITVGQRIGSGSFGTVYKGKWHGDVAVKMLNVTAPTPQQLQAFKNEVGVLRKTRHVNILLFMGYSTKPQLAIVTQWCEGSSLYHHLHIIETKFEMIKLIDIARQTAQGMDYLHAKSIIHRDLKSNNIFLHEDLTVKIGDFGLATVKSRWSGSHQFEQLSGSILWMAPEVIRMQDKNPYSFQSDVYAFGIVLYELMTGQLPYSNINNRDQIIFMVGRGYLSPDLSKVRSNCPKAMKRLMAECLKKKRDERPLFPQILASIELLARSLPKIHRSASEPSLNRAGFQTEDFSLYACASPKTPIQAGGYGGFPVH

[10] = system: A-375; experiment: Antiproliferative activity against human A-375 cells incubated for 48 hrs by MTT based colorimetric method; assay type: functional, cell-based; conditions: A-375, 48 h
[11] = system: WM 266-4; experiment: Antiproliferative activity against human WM266-4 cells incubated for 48 hrs by MTT based colorimetric method; assay type: functional, cell-based; conditions: WM 266-4, 48 h
[12] = molecular target: T1, Serine/threonine-protein kinase B-raf; experiment: Inhibition of B-Raf V600E mutant (unknown origin) by ELISA based assay
Target sequence in this assay (P15056 2-766 V600E limits assumed): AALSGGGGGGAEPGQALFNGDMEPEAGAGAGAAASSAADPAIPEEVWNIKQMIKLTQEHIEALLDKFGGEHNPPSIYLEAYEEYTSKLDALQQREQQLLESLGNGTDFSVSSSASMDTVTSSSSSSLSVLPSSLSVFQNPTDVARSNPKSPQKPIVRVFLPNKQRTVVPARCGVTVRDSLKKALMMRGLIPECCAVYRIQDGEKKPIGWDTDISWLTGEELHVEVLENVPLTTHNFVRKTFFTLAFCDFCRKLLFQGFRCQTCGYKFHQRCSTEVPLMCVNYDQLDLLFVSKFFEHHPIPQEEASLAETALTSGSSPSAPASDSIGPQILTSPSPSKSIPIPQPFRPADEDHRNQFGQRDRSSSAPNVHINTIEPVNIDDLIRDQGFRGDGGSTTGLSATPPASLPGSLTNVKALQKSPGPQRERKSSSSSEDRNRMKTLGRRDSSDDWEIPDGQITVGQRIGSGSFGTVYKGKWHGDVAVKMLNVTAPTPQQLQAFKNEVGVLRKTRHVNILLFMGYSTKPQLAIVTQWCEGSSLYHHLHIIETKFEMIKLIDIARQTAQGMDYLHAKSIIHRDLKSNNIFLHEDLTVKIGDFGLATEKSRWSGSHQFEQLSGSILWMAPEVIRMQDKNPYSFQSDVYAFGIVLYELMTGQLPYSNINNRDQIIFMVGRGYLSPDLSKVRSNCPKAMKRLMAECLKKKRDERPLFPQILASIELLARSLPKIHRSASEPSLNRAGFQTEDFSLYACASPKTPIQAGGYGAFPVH

[13] = molecular target: T2, Serine/threonine-protein kinase B-raf (Homo sapiens, UniProt P15056); experiment: Inhibition of wild type B-Raf (unknown origin) by ELISA based assay
T2 sequence (P15056 whole entry): as the sequence (P15056 whole entry V600E) above, with E600V counted along it

[14] = system: A-375; experiment: Antiproliferative activity against human A-375 cells assessed as inhibition of cell growth incubated for 72 hrs by MTT assay; assay type: functional, cell-based; conditions: A-375, 72 h
[15] = system: HT-29; experiment: Antiproliferative activity against human HT-29 cells assessed as inhibition of cell growth incubated for 72 hrs by MTT assay; assay type: functional, cell-based; conditions: HT-29, 72 h
[16] = system: COLO 205; experiment: Antiproliferative activity against human COLO 205 cells assessed as inhibition of cell growth incubated for 72 hrs by MTT assay; assay type: functional, cell-based; conditions: COLO 205, 72 h
[17] = molecular target: T2, Serine/threonine-protein kinase B-raf; experiment: Inhibition of wild type B-Raf (unknown origin) by hotspot kinase assay
[18] = molecular target: T1, Serine/threonine-protein kinase B-raf; experiment: Inhibition of B-Raf V600E mutant (unknown origin) by hotspot kinase assay
Target sequence in this assay (P15056 2-766 V600E limits assumed): as the sequence (P15056 2-766 V600E limits assumed) above

[19] = system: SK-MEL-28; experiment: Antiproliferative activity against human SK-MEL-28 cells; assay type: functional, cell-based
[20] = system: A-375; experiment: Antiproliferative activity against human A-375 cells; assay type: functional, cell-based
[21] = molecular target: T2, Serine/threonine-protein kinase B-raf; experiment: Inhibition of wild type B-Raf (unknown origin)
[22] = system: A-375; experiment: Antiproliferative activity against human A-375 cells assessed as inhibition of cell viability; assay type: functional, cell-based
[23] = Inhibition of full length GST tagged mouse B-Raf V600E mutant incubated for 1 hr
[24] = system: A-375; experiment: Antiproliferative activity against human A-375 cells assessed as cell growth inhibition; assay type: functional, cell-based
[25] = Antiproliferative activity against human WM1361 cells assessed as cell growth inhibition; assay type: functional, cell-based
[26] = Inhibition of full length GST tagged mouse B-Raf V600E mutant measured after 25 mins by ELISA method
[27] = system: WM 266-4; experiment: Antiproliferative activity against human WM266-4 cells incubated for 24 hrs by MTT assay; assay type: functional, cell-based; conditions: WM 266-4, 24 h
[28] = system: A-375; experiment: Antiproliferative activity against human A-375 cells incubated for 72 hrs by celltiter glo assay; assay type: functional, cell-based; conditions: A-375, 72 h
[29] = system: WM-115; experiment: Antiproliferative activity against human WM-115 cells incubated for 72 hrs by celltiter glo assay; assay type: functional, cell-based; conditions: WM-115, 72 h
[30] = system: COLO 205; experiment: Antiproliferative activity against human COLO 205 cells incubated for 72 hrs by celltiter glo assay; assay type: functional, cell-based; conditions: COLO 205, 72 h
[31] = system: SW1417; experiment: Antiproliferative activity against human SW1417 cells incubated for 72 hrs by celltiter glo assay; assay type: functional, cell-based; conditions: SW1417, 72 h
[32] = system: RKO; experiment: Antiproliferative activity against human RKO cells incubated for 72 hrs by celltiter glo assay; assay type: functional, cell-based
[33] = system: K562; experiment: Anticancer activity against human K562 cells; assay type: functional, cell-based
[34] = system: HCT-116; experiment: Anticancer activity against human HCT-116 cells; assay type: functional, cell-based
[35] = system: A549; experiment: Anticancer activity against human A549 cells; assay type: functional, cell-based
[36] = system: SK-MEL-2; experiment: Anticancer activity against human SK-MEL-2 cells; assay type: functional, cell-based
[37] = system: MV4-11; experiment: Anticancer activity against human MV4-11 cells; assay type: functional, cell-based
[38] = system: A-375; experiment: Antiproliferative activity against human A-375 cells incubated for 24 hrs by MTT assay; assay type: functional, cell-based; conditions: A-375, 24 h
[39] = Antiproliferative activity against human WM1361 cells incubated for 24 hrs by MTT assay; assay type: functional, cell-based; conditions: WM1361, 24 h

COc1ccc(S(=O)(=O)Nc2cc(-c3ccc(C)cc3)[nH]n2)cc1
IC50 [1]: 180 nM
IC50 [2]: 10100 nM
IC50 [3]: 2040 nM
IC50 [4]: 1580 nM

CNC(=O)c1cc(Cn2ccc3cc(NC(=O)Nc4ccc(Cl)c(C(F)(F)F)c4)ccc32)ccn1
IC50 [5]: 510 nM
IC50 [6]: 6630 nM
IC50 [7]: 21900 nM
IC50 [8]: 13500 nM

COc1ccc(-n2cc(Nc3cccc4[nH]ncc34)cn2)cc1
IC50 [1]: 40 nM
IC50 [9]: 770 nM
IC50 [10]: 340 nM
IC50 [11]: 380 nM

CCC[S+]([O-])Nc1ccc(F)c(Cc2c[nH]c3nc(N)n(C)c(=O)c23)c1F (stereo not given)
IC50 [12]: 50 nM
IC50 [13]: 440 nM
IC50 [14]: 800 nM
IC50 [15]: 550 nM
IC50 [16]: 1640 nM

COc1cc(-c2nn(-c3ccc(NC(=O)CN4CCOCC4)cc3)cc2-c2ccncc2)ccc1Cl
IC50 [17]: 536 nM
IC50 [18]: 2.98 nM
IC50 [19]: 2210 nM
IC50 [20]: 1820 nM

CC(C)(C)c1cc(NC(=O)Nc2ccc(Oc3ccnc4[nH]c(=O)cnc34)cc2F)n(-c2ccccc2)n1
IC50 [21]: 100 nM
IC50 [22]: 12000 nM

Cc1ccc(NC(=S)NNC(=O)CNc2nc(-c3ccccc3)c(-c3ccccc3)s2)cc1
IC50 [23]: 1300 nM

COc1ccc(-n2cc(NC(=O)c3cccc(NC(=O)Nc4ccc(Cl)c(C(F)(F)F)c4)c3)cn2)cc1
IC50 [5]: 35 nM
IC50 [21]: 220 nM
IC50 [24]: 390 nM
IC50 [25]: 7120 nM

CCCCN1CCN(Oc2cc3nccc(Oc4ccc(NS(=O)(=O)c5cc(F)ccc5F)cc4F)c3cc2OC)CC1
IC50 [5]: 91 nM
IC50 [21]: 100 nM

Oc1ccccc1C1CC(c2ccc(Cl)c(Cl)c2)=NN1c1ccccc1 (stereo not given)
IC50 [26]: 150 nM
IC50 [27]: 1750 nM

CC(=O)Nc1cc(-c2sc(C3CCN(C4CC4)CC3)nc2-c2cccc(NS(=O)(=O)c3cc(F)ccc3F)c2F)ccn1
IC50 [28]: 3 nM
IC50 [29]: 148 nM
IC50 [30]: 5 nM
IC50 [31]: 208 nM
IC50 [32]: 2280 nM

Cc1nn(-c2ccccc2)c(Cl)c1Nc1ccc(C(F)(F)F)cc1
IC50 [5]: 66 nM
IC50 [20]: 810 nM

O=C(Nc1ccc(Oc2ccc(C(=O)c3ncc[nH]3)cc2)cc1)Nc1ccc(Cl)c(C(F)(F)F)c1
IC50 [5]: 86 nM
IC50 [21]: 134 nM
IC50 [33]: 9130 nM
IC50 [34]: 10900 nM
IC50 [35]: 9110 nM
IC50 [36]: 5400 nM
IC50 [37]: 380 nM

Cc1ccc(-n2cc(NC(=O)c3c[nH]c4ccccc34)cn2)cc1
IC50 [1]: 100 nM
IC50 [9]: 920 nM
IC50 [38]: 930 nM
IC50 [39]: 10000 nM
